Four substances from patent US6037447A, “Glycopeptide compounds” (priority 1998, dated 2000) can be followed below.

The test system of assay [1] is Staphylococcus aureus 446. Put plainly: Standard broth micro-dilution MIC, Staphylococcus aureus 446. The class given is cell-based. The protocol:
(§1) The minimal inhibitory concentrations (MICs) were determined using a standard broth micro-dilution assay.
A general note: Dilution methods test growth across graded concentrations, often in twofold steps.

For assay [2], the system named is Staphylococcus aureus 489. Put plainly: Standard broth micro-dilution MIC, Staphylococcus aureus 489. It is filed as cell-based. The procedure: as §1
The subject of assay [3] is Staphylococcus aureus 447. The experiment in a line: Standard broth micro-dilution MIC, Staphylococcus aureus 447. It is filed as cell-based. The protocol: as §1
Assay [4] deals with Staphylococcus aureus X400. Put plainly: Standard broth micro-dilution MIC, Staphylococcus aureus X400. It is filed as cell-based. The protocol: as §1
The subject of assay [5] is Staphylococcus aureus X778. Put plainly: Standard broth micro-dilution MIC, Staphylococcus aureus X778. It is filed as cell-based. The procedure:
as §1

Assay [6] has as its system Staphylococcus aureus 491. Put plainly: Standard broth micro-dilution MIC, Staphylococcus aureus 491. The class given is cell-based. The procedure: as §1
In assay [7] the test system is Staphylococcus aureus S13E. It is filed as cell-based. The protocol: as §1
Assay [8] has as its system Staphylococcus aureus SA1199. The experiment in a line: Standard broth micro-dilution MIC, Staphylococcus aureus SA1199. It is filed as cell-based. The protocol:
as §1

For assay [9], the system named is Staphylococcus aureus SA1199A. The experiment in a line: Standard broth micro-dilution MIC, Staphylococcus aureus SA1199A. The class given is cell-based. The protocol: as §1
Assay [10] deals with Staphylococcus aureus SA119913. Put plainly: Standard broth micro-dilution MIC, Staphylococcus aureus SA119913. It is filed as cell-based. The protocol: as §1
The subject of assay [11] is Staphylococcus haemolyticus 105. Put plainly: Standard broth micro-dilution MIC, Staphylococcus haemolyticus 105. The class given is cell-based. The protocol: as §1
Assay [12] relates to Staphylococcus haemolyticus 415. The experiment in a line: Standard broth micro-dilution MIC, Staphylococcus haemolyticus 415. The class given is cell-based. The procedure:
as §1

Assay [13] has as its system Staphylococcus epidermidis 270. Put plainly: Standard broth micro-dilution MIC, Staphylococcus epidermidis 270. The class given is cell-based. The protocol:
as §1

The subject of another assay is Enterococcus faecium 180. Put plainly: Standard broth micro-dilution MIC, Enterococcus faecium 180. The class given is cell-based. The procedure: as §1
Assay [14] has as its system Enterococcus faecium 180-1. The experiment in a line: Standard broth micro-dilution MIC, Enterococcus faecium 180-1. It is filed as cell-based. The protocol:
as §1

In assay [15] the test system is Enterococcus faecalis 2041. Put plainly: Standard broth micro-dilution MIC, Enterococcus faecalis 2041. The class given is cell-based. The procedure: as §1
The subject of assay [16] is Enterococcus faecalis 276. Put plainly: Standard broth micro-dilution MIC, Enterococcus faecalis 276. The class given is cell-based. The procedure:
as §1

In assay [17] the test system is Enterococcus gallinarum 245. Put plainly: Standard broth micro-dilution MIC, Enterococcus gallinarum 245. The class given is cell-based. The procedure:
as §1

Assay [18] relates to Haemophilus influenzae RD. The experiment in a line: Standard broth micro-dilution MIC, Haemophilus influenzae RD. The class given is cell-based. The protocol:
as §1

A further assay relates to Escherichia coli EC14. Put plainly: Standard broth micro-dilution MIC, Escherichia coli EC14. The class given is cell-based. The protocol:
as §1

The subject of assay [19] is Streptococcus pyogenes C203. Put plainly: Standard broth micro-dilution MIC, Streptococcus pyogenes C203. The class given is cell-based. The protocol:
as §1

The test system of assay [20] is Streptococcus pneumoniae P1. Put plainly: Standard broth micro-dilution MIC, Streptococcus pneumoniae P1. It is filed as cell-based. The procedure: as §1
Assay [21] relates to vancomycin-resistant enterococci. Put plainly: In Vitro Activity Against Enterococci, vancomycin-resistant strains. The class given is cell-based. The note with it: representative vancomycin-resistant enterococci (Enterococcus faecium and Enterococcus faecalis). The protocol:
as §1

The subject of assay [22] is vancomycin-sensitive enterococci. The experiment in a line: In Vitro Activity Against Enterococci, vancomycin-sensitive strains. It is filed as cell-based, Enterococcus faecium and Enterococcus faecalis. The note with it: representative vancomycin-sensitive enterococci (Enterococcus faecium and Enterococcus faecalis). The protocol: as §1

Take “N^4 -(4-(2-(2-(2-(p-formyl-phenoxy)ethoxy)ethoxy)ethoxy)benzyl)A82846B [Compound 43]”: the MIC in [1] was determined as 2 µg/mL; in [2], 1 µg/mL; in [3] it was 4 µg/mL; in assay [4] it was 2 µg/mL; in [5], 2 µg/mL; in assay [6], 0.5 µg/mL. The MIC in assay [7] was found to be 2 µg/mL; in assay [8], 2 µg/mL; in [9] it was 0.5 µg/mL; in [10], 4 µg/mL; in assay [11], 1 µg/mL; in [12] it was 8 µg/mL. Besides, the MIC was 4 µg/mL in assay [13]; 8 µg/mL against Enterococcus faecium 180; 0.5 µg/mL in assay [14]; 1 µg/mL in [15]; 1 µg/mL in assay [16]; 0.5 µg/mL in assay [17]. For the same substance, the MIC in [18] is greater than 64 µg/mL; in the assay on Escherichia coli EC14, greater than 64 µg/mL; in assay [19], 0.06 µg/mL; in [20] it was 0.06 µg/mL. Moreover, the “mean geometric MIC, Vancomycin Resistant Strains” value in [21] is greater than 128 µg/mL. Also, the “mean geometric MIC, Vancomycin Sensitive Strains” value in assay [22] stood at 4.6 µg/mL.
Consider “N^4 -(4-(2-(4-(2-(p-formyl-phenoxy)ethoxycarbonyl)benzoyl-oxy)ethoxy)benzyl)vancomycin [Compound 44]”, for which the MIC in assay [1] was 0.125 µg/mL; in assay [2] it was 0.125 µg/mL; in assay [3], 0.125 µg/mL; in [4], no more than 0.06 µg/mL; in assay [5] it was no more than 0.06 µg/mL; in assay [6], no more than 0.06 µg/mL. The MIC is no more than 0.06 µg/mL in [7]; no more than 0.06 µg/mL in assay [8]; no more than 0.06 µg/mL in assay [9]; no more than 0.06 µg/mL in assay [10]; 0.25 µg/mL in assay [11]; 2 µg/mL in assay [12]. Moreover, the MIC in assay [13] was 0.25 µg/mL; against Enterococcus faecium 180 it was 4 µg/mL; in [14], no more than 0.06 µg/mL; in assay [15] it was no more than 0.06 µg/mL; in assay [16], no more than 0.06 µg/mL; in [17], 0.25 µg/mL. The MIC in assay [18] was greater than 64 µg/mL; with Escherichia coli EC14, greater than 64 µg/mL; in assay [19], 0.06 µg/mL; in [20] it was 0.06 µg/mL. Besides, in assay [21], the “mean geometric MIC, Vancomycin Resistant Strains” value turned out to be 76 µg/mL. For the same substance, the “mean geometric MIC, Vancomycin Sensitive Strains” value in assay [22] turned out to be 0.66 µg/mL.
Turning to “N^4 -(4-(8-(p-formylphenoxy)-n-octyloxy)benzyl)A82846B [Compound 47]”, the MIC in assay [1] was 8 µg/mL; in assay [2] it was 4 µg/mL; in assay [3] it was 8 µg/mL; in assay [4], 8 µg/mL; in [5], 8 µg/mL; in assay [6], 16 µg/mL. Moreover, the MIC in assay [7] turned out to be 16 µg/mL; in assay [8], 16 µg/mL; in assay [9], 0.5 µg/mL; in assay [10], 8 µg/mL; in assay [11], 8 µg/mL; in assay [12] it was 16 µg/mL. Moreover, the MIC in [13] turned out to be 4 µg/mL; against Enterococcus faecium 180 it was 0.5 µg/mL; in [14], 1 µg/mL; in assay [15], 2 µg/mL; in assay [16], 8 µg/mL; in [17], 16 µg/mL. Moreover, the MIC in assay [18] is greater than 64 µg/mL; with Escherichia coli EC14 it was greater than 64 µg/mL; in assay [19] it was no more than 0.06 µg/mL; in [20] it was no more than 0.06 µg/mL. Also, the “mean geometric MIC, Vancomycin Resistant Strains” value in assay [21] turned out to be 2.8 µg/mL. Besides, the “mean geometric MIC, Vancomycin Sensitive Strains” value in assay [22] worked out at 1.0 µg/mL.
On to “N^4 -(4-(12-(p-formylphenoxy)-n-dodecyloxy)benzyl)A82846B [Compound 48]”, for which the MIC in [1] was greater than 64 µg/mL; in assay [2] it was 32 µg/mL; in assay [3], greater than 64 µg/mL; in [4], 32 µg/mL; in assay [5], 32 µg/mL; in assay [6], 32 µg/mL. The MIC was 32 µg/mL in assay [7]; 32 µg/mL in [8]; 16 µg/mL in assay [9]; 32 µg/mL in assay [10]; greater than 64 µg/mL in assay [11]; greater than 64 µg/mL in [12]. The MIC in [13] is greater than 64 µg/mL; against Enterococcus faecium 180, 64 µg/mL; in [14] it was 8 µg/mL; in [15], 8 µg/mL; in assay [16], 32 µg/mL; in assay [17], greater than 64 µg/mL. The MIC in assay [18] was greater than 64 µg/mL; against Escherichia coli EC14, greater than 64 µg/mL; in assay [19], 2 µg/mL; in assay [20] it was 4 µg/mL. The “mean geometric MIC, Vancomycin Resistant Strains” value in assay [21] turned out to be 8.0 µg/mL. For the same substance, the “mean geometric MIC, Vancomycin Sensitive Strains” value in [22] was determined as 5.2 µg/mL.
